“Also recorded” adds a separate entry of the source. {Fluorescein} = fluorescein label
Columns and labels:
Format in all cases: cell-based, mouse
[1] = system: cultured cortical neurons; test: Transfection efficiency of fluorescent ODN in cortical neuron cultures; settings: fluorescent Ngb antisense ODN, DAPI counterstain, n=10
From the text: (§1) A phosphorothioate antisense ODN labeled with fluorescein at the 5′ end and directed against the initial coding region of the target Ngb mRNA (5′-TCC GGG CGC TCC AT-3′, from nucleotides 90-77, SEQ ID NO:2)was designed based on the mouse Ngb sequence obtained from Genbank (accession number NM 022414). This and a sense sequence (5′-ATG GAG CGC CCG GA-3′, SEQ ID NO:3), from nucleotides 77-90) were synthesized commercially (Operon Technologies) and purified by HPLC. Cultures were transfected with ODNs (1-10 μM) using FuGENE 6 (Roche), beginning 3 h before the onset of hypoxia. Cultures were analyzed by Western blotting and by MTT cell viability assay, and fluorescence microscopy was used to confirm transfection and examine its relationship to cell death, using caspase-3 activation as a marker.
To begin to investigate the possibility that Ngb protects neurons from hypoxia, cultured neurons were transfected with a phosphorothioate antisense ODN directed against the initial coding region of the target Ngb mRNA (5′-TCC GGG CGC TCC AT-3′, from nucleotides 90-77, SEQ ID NO:4) or with a control sense sequence (5′-ATG GAG CGC CCG GA-3′, from nucleotides 77-90, SEQ ID NO:5), both labeled with fluorescein at the 5′ end. Transfection efficiency, measured in cultures transfected with the fluorescent Ngb antisense ODN and counterstained with DAPI, was 96±1% (n=10). […]

[2] = system: cultured cortical neurons; test: Cell viability (MTT absorbance, trypan blue exclusion) of ODN-treated cultured cortical neurons
Description: Neuronal cultures were prepared from the cerebral hemispheres of 16-day Charles River CD1 mouse embryos, seeded at 3×10^5 cells per well on 24-well culture dishes precoated with poly-D-lysine, and grown in Eagle's minimal essential medium (GIBCO BRL) with 5% horse serum and 5% fetal bovine serum (Jin et al. (2000) Proc. Natl. Acad. Sci. U.S.A. 97: 10242-10247). Cultures were treated with 10 μM cytosine arabinoside on day 6 and used on day 11, when >95% of cells expressed the neuronal marker, microtubule-associated protein 2. […] Cell viability was assayed by incubating cultures with 5 mg/ml of 3-(4,5-dimethylthiazol-2-yl)-2,5-diphenyl tetrazolium bromide (MTT) at 37° C. for 2 h and measuring absorbance at 570 nm in solubilized cells using a Cytofluor Series 4000 multi-well plate-reader (PerSeptive Biosystems). […]
as §1, with “This and a sense sequence (5′-ATG GAG CGC CCG GA-3′, SEQ ID NO:3), from nucleotides 77-90) were synthesized commercially (Operon Technologies) and purified by HPLC. Cultures were transfected with ODNs (1-10 μM) using FuGENE 6 (Roche), beginning 3 h before the onset of hypoxia.” left out

[3] = system: 17-20 kDa caspase-3 cleavage product; test: Caspase-3 cleavage product immunofluorescence in ODN-transfected cortical neurons; settings: fluorescence microscopy, hypoxic cortical neurons
Description: Cultures were fixed with 4% paraformaldehyde and incubated over night at 4° C. with one or more of the following primary antibodies: rabbit polyclonal anti-Ngb (1:200), mouse monoclonal anti-NeuN (1:200, Chemicon), and rabbit polyclonal anti-17-20 kDa caspase-3 cleavage product (1:100, New England Biolabs). The secondary antibodies (all 1:200) were fluorescein isothiocyanate-conjugated goat anti-rabbit or anti-mouse IgG (Vector) and rhodamine-conjugated donkey anti-rabbit IgG (Jackson ImmunoResearch). Controls for non-specific binding included omitting primary (FIG. 1C) or secondary antibodies. In addition, in some cultures, nuclei were labeled with 4′,6-diamidino-2-phenylindole (DAPI) or DNA strand breaks were labeled with the Klenow fragment of DNA polymerase I (Roche) followed by rhodamine avidin D (Vector), as described (Jin et al. (1999) J Neurochem 72: 1204-1214). Fluorescence signals were detected with a Nikon E800 epifluorescence microscope using excitation/emission wavelengths of 535/565 nm for rhodamine (red), 470/505 nm for fluorescein isothiocyanate (green) and 360/400 nm for DAPI (blue). Results were recorded with a Magnifire digital color camera (Optronics). […]

Ngb mRNA = test: Ngb protein expression in cultured cortical neurons transfected with antisense/sense ODN (Western blot); settings: ODN-transfected cortical neurons vs sense-transfected or untransfected control cultures
Description: Cell lysates were prepared as described (Jin et al. (2000) Proc. Natl. Acad. Sci. U.S.A. 97: 10242-10247) and 100-μg protein samples were electrophoresed on 12% SDS-PAGE gels and transferred to polyvinyldifluoridine membranes. Membranes were incubated overnight at 4° C. with a rabbit polyclonal antibody against Ngb (1:2000), which was produced by immunizing with a synthetic peptide corresponding to amino-acids 35-50 (NH2-CLSSPEFLDHIRKVML-COOH, , SEQ ID NO:1) of mouse Ngb, and affinity-purified using a Sulfolink kit (Pierce). A horseradish peroxidase-conjugated anti-rabbit secondary antibody (Santa Cruz Biotechnology) and a chemiluminescence substrate system (NEN) were used to visualize the immunolabeled bands (Id.).
as §1, with “This and a sense sequence (5′-ATG GAG CGC CCG GA-3′, SEQ ID NO:3), from nucleotides 77-90) were synthesized commercially (Operon Technologies) and purified by HPLC. Cultures were transfected with ODNs (1-10 μM) using FuGENE 6 (Roche), beginning 3 h before the onset of hypoxia.” left out

Question: Which results are given for “5′-TCC GGG CGC TCC AT-3′ (antisense TCCGGGCGCTCCAT; DNA, all phosphorothioate, 5' {Fluorescein}, methylation of C not given here) [antisense ODN]”?
Answer: Transfection efficiency [1]: 96±1%; effect on the toxicity of staurosporine or SNP ([2]; 0.1 μM staurosporine or 200-400 μM SNP, 12 h, 5 μM ODN): no effect; viability of cultured neurons exposed to hypoxia ([2]; 12 h without oxygen, 5 μM ODN added 3 h prior, MTT absorbance or trypan blue exclusion): decrease in the viability; transfected cells co-expressing the 17-20 kDa caspase-3 cleavage product [3]: many; Ngb protein expression (Ngb mRNA): reduced; also recorded: decreased Ngb expression
